Our source for the Ki values is article doi:10.1101/2022.03.17.484770v1 (biorxiv, 2022).

For the test, the target named is T1, IRI1/LHT1 (Arabidopsis thaliana, UniProt Q9FKS8).
T1 sequence (Q9FKS8 1-446): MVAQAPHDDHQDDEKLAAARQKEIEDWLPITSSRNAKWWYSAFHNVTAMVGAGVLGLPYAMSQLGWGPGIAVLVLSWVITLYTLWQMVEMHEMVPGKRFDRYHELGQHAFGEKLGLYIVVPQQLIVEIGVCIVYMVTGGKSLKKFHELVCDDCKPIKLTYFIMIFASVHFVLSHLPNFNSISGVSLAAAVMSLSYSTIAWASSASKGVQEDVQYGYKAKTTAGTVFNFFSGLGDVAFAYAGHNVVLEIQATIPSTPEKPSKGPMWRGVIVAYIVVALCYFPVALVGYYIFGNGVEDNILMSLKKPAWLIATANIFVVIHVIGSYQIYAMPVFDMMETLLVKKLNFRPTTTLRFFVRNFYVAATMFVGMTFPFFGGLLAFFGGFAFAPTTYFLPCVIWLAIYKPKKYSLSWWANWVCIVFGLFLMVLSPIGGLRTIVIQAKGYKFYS
Briefly: inhibition of […]-L-Ala uptake in yeast. The format is cell-based.

As a reminder, the Ki is the equilibrium dissociation constant of an inhibitor or competing ligand from its target. Low readings indicate higher affinity, high ones lower affinity. `CC(N)CC(=O)O` (racemic) [BABA, β-amino butyric acid] gave a Ki of 24.7 µM.
Next, `N[C@@H](CO)CC(=O)O` [RBH, R-β-homoserine]: 39.2 µM.
